Results taken from PMC12128972, “TYRA-300, an FGFR3-selective inhibitor, promotes bone growth in two FGFR3-driven models of chondrodysplasia” (JCI Insight, 2025).
Several values for one entry are separate records, joined by “and”; a condition that tells them apart may be missing. Identical values can stand only once.

Experiments:
Format in all cases: in vivo, mouse
[1] = tested on: skull and foramen magnum of Fgfr3^Y367C/+ mice; assay: Fgfr3Y367C/+ mice: skull and foramen magnum (calipers, microCT), grade of synchondroses; parameters: source data of Figure 3I (sheet "3I"): grade of synchondroses: scale not given here
Description: Another hallmark of ACH that is observed in Fgfr3^Y367C/+ mice is change in the size and shape of the skull and foramen magnum ([28]). The size of the foramen magnum is of particular clinical importance, as its reduced size can cause compression of the brain stem and spinal cord, resulting in significant morbidity and mortality in infants with ACH ([37]–[40]). To study the effects of TYRA-300 on the skull and foramen magnum in Fgfr3^Y367C/+ mice, macroscopic analyses were performed and μCT images were taken of the mice at the end of study. Changes in the shape of the skull are visible on μCT images in TYRA-300–treated Fgfr3^Y367C/+ mice compared with vehicle-treated Fgfr3^Y367C/+ mice (Figure 3A). […] The skull was further analyzed using the μCT images, which enabled measurement of the anteroposterior length and nasio-occipital length of the skull.
The μCT images also indicate that treatment with TYRA-300 modified the synchondroses at the base of the skull (Figure 3, I and J). […] Overall, the improvement in the size and shape of the foramen magnum with TYRA-300 has important clinical implications for foramen magnum stenosis.
(§1) Whole body x-ray images were taken of all animals by Faxitron specimen radiography MX-20 (Faxitron X-Ray LLC) following terminal sacrifice. The length of the L4–L6 lumbar vertebra segment was also measured for each animal using calipers, and the height of the L5 vertebral body was measured from Alcian blue/Sirius red images. Long bones and the skull were then excised, and their dimensions were measured using calipers (VWRi819-0013, VWR International). The transverse and sagittal diameters of the foramen magnum were also measured using calipers for the Fgfr3^Y367/+ model, and measured using the μCT images for the Fgfr3^N534K/+ model.
(§2) The heads of all mice were isolated, and skin was stripped before being placed in 70% ethanol at 4°C. μCT images of the skulls were measured on the Skyscan-1272 (Bruker) with the following parameters: 10 μm resolution, 680 ms exposure, 70 kV, 142 μA, and 0.350° rotation step. The μCT data were analyzed using DataViewer and CTAn software (version 1.20.8) to perform postprocessing techniques in 3D. The nasio-occipital length and anteroposterior length of the skull were measured using 2D μCT images.

[2] = tested on: growth plate chondrocytes of Fgfr3^Y367C/+ mice; assay: Fgfr3Y367C/+ mice: histology and immunohistochemistry of distal femur growth plate (H&E, collagen type X, PCNA, HZC count)
Description: To understand the effects of TYRA-300 treatment on the growth plate cartilage and chondrocytes and the mechanism through which TYRA-300 increases bone growth, histological analysis of the femurs of Fgfr3^Y367C/+ mice was performed. […] Treatment also facilitated angiogenesis, deposition of bone matrix, and resorption of the cartilage. In addition, the overall structure of the growth plate was more organized after treatment with TYRA-300. […] The organization of the hypertrophic zone, with HZCs organized in columns, appeared similar in TYRA-300–treated Fgfr3^Y367C/+ mice and Fgfr3^+/+ mice. Within the hypertrophic zone of TYRA-300–treated mice, the HZCs were larger than in vehicle-treated mice.
The right femur and lumbar vertebrae segment L4–L6 were collected and fixed in 4% paraformaldehyde, decalcified with ethylenediaminetetraacetic acid (EDTA) 0.5 M (pH 8) for 2 or 3 weeks, and embedded in paraffin. Serial paraffin sections of 5 μm were stained with hematoxylin, eosin, and Safranin O. For immunohistochemistry, sections were labeled with antibodies against collagen type X (BIOCYC ref. [1]-CO097-05-RUO, 1:100 dilution), collagen type I (Novotec, 20151, dilution 1:1,000), pERK (Cell Signaling, 4370S, dilution 1:1,000), and PCNA (Abcam, GR3195972-6, 1:500 dilution) using the Dako Envision Kit. Images were captured with an Olympus PD70-IX2-UCB microscope and CellSens software (Olympus Life Science Solutions). Cells were counted using ImageJ software (NIH, Laboratory for Optical Computational Instrumentation).

[3] = tested on: foramen magnum of Fgfr3^N534K/+ mice; assay: Fgfr3N534K/+ mice: microCT of foramen magnum, grade of synchondroses; parameters: key to grade of synchondroses after treatment: I: border of synchondroses were completely separated; II: clear separation of synchondroses with some areas suspicious for bone bridging; III: synchondroses showing bony bridge between 2 borders; IV: completely fused synchondroses with remnants of margin (cartilage); V: completely fused synchondroses; source data of Figure 5C (sheet "5C"): grade of synchondroses: scale not given here
Description: Finally, to confirm the effects of TYRA-300 on the axial skeleton in Fgfr3^N534K/+ mice, μCT imaging of the foramen magnum was performed at the end of treatment.
as §1, §2

[4] = tested on: femurs of Fgfr3^Y367C/+ mice; assay: Fgfr3Y367C/+ mice: microCT of femurs (SOC bone volume, BMD, BV/TV); conditions: 1.2 mg/kg s.c. daily for 15 days
Description: Finally, measurements of trabecular bone quality were performed using μCT imaging of the femurs (Supplemental Figure 2).
Femurs were placed in 70% ethanol at 4°C and measured on the Skyscan-1272 (Bruker) with the following parameters: 60 kV, 166 μA, 0.25 mm aluminum filter. Within the femurs, the trabecular parameters were obtained at 5 μm voxel resolution in a ROI (normalized to 7% of the femur length in size) beginning 255 μm proximal to the distal growth plate for controls, 25 μm for Fgfr3^Y367C/+ + vehicle, and 35 μm for Fgfr3^Y367C/+ + TYRA-300. The BMD and BV/TV of the metaphysis were measured using on a set of sections located within the secondary spongiosa under the growth plate. The measured volume was chosen to be proportional to the femur length (typically 630 μm for control animals and 310 μm for Fgfr3^Y367C/+ + vehicle and 415 μm for Fgfr3^Y367C/+ + TYRA-300.) Scan reconstruction was done using NRecon (v 1.7.4.6). Scan orientation was done using DataViewer (v 1.7.0.1). 3D Analysis for trabecular bone was performed using CT Analyzer (v 1.23.0.2).

[5] = 1.2 mg/kg s.c. daily for 15 days
[6] = 1.2 mg/kg s.c. daily for 15 days, macroscopic
[7] = 1.2 mg/kg s.c. daily for 15 days, microCT
[8] = 1.8 mg/kg daily for 21 days, microCT

C[C@@H](Oc1ccc2[nH]nc(-c3ccc(N4CC5(C4)CN(S(C)(=O)=O)C5)nc3)c2c1)c1c(Cl)cncc1Cl [TYRA-300]
increase in sagittal diameter of the foramen magnum vs vehicle [1, 5]: 9.28% | increase in transverse diameter of the foramen magnum vs vehicle [1, 5]: 13.05% | grade of synchondroses (intraoccipital synchondrosis anterior) ([1]; 1.2 mg/kg s.c. daily for 15 days, all treated mice): II or III | increase in skull length vs vehicle [1, 6]: 10.08% | increase in skull width vs vehicle [1, 6]: 3.74% | increase in anteroposterior length of the skull vs vehicle [1, 7]: 8.92% | increase in area of the foramen magnum vs vehicle [1, 7]: 25.17% | increase in nasio-occipital length of the skull vs vehicle [1, 7]: 7.87% | source data of Figure 3I (sheet "3I"): grade of synchondroses ([1]; Fgfr3Y367C/+ mice + TYRA-300, individual animal values): 3 and 2.5 | expression of PCNA in distal femoral growth plate [2, 5]: a more well-defined positive zone within the growth plate | number of HZCs within the ROI vs vehicle ([2]; 1.2 mg/kg s.c. daily for 15 days, distal femur): significant decrease | type X collagen staining in the HZCs ([2]; present study): partial restoration | change in transverse diameter of the foramen magnum ([3]; 1.8 mg/kg daily for 21 days, data not shown): not a statistically significant change | increase in area of the foramen magnum vs vehicle [3, 8]: 7.51% | increase in sagittal diameter of the foramen magnum vs vehicle [3, 8]: 6.35% | grade of synchondroses after treatment ([3]; 1.8 mg/kg daily for 21 days, most mice, vehicle grade V): IV | source data of Figure 5C (sheet "5C"): grade of synchondroses ([3]; Fgfr3N534K/+ mice + TYRA-300, individual animal values): 5 and 4 | bone volume of the SOC (microCT) vs vehicle [4]: significant increase | increase in bone mineral density (BMD) vs vehicle ([4]; femoral metaphyses): 21.4% | increase in bone volume-to-tissue volume ratio (BV/TV) vs vehicle ([4]; femoral metaphyses): 73.3%
